Experiments:
Format in all cases: cell-based
[1] = system: Human Follicle Dermal Papilla Cells (HFDPC); assay: Assessment of cell morphology by phase contrast microscopy; conditions: for cell adherence and proliferation (summary of morphology): diosgenin concentration-dependent
Experimental: (§1) First, Human Follicle Dermal Papilla Cells (HFDPC) cells were thawed and seeded into collagen-coated cell culture flasks (T25). Then the medium was changed every 48 h. After 4 days the cells were trypsinized and seeded in T75 cell culture flask. In preparation for the final experiment, the cells were trypsinized and then counted with a cell counter. The cell concentration was then adjusted in a defined amount of medium followed by seeding of the cells in 96-well plates for the subsequent cell impedance measurements (5000 cells per well) or in 24-well plates (20000 cells per well). Subsequently, the cells were cultivated for 7 days in pure culture medium with regular medium changes after 2-3 days. After 7 days, the medium with the additives listed in Table 1 was added (designated as day 0), followed by a 3-week cultivation of the cells. The medium (and addition of fresh active substances) was changed every 2-3 days. […] The following examinations were carried out after 7, 14 and 21 days.
Cell morphology was assessed through microscopic examination of the cells with an inverted microscope (phase contrast microscopy) at 10x and 20x primary magnification. The morphology of the cells provides information on the adherence behaviour of the cells,possible cell activation and cell stress. This examination was carried out on a 24-well scale.

[2] = system: Human Follicle Dermal Papilla Cells (HFDPC); assay: VEGF-ELISA (VEGF secretion)
Experimental: VEGF belongs to the signal molecules and stimulates the proliferation and migration of HFDPC. HFDPC generate more VEGF in the anagen phase. Thus, VEGF is an indication of the anagen phase of a hair. The detection of the VEGF protein was performed with the Human VEGF ELISA Kit from Invitrogen. The procedure was performed according to the protocol contained in the test kit with the cell supernatants previously frozen at -80°C. The removal of the cell culture supernatants was carried out on a 24-well scale. A higher value for the VEGF [pg/ml] (y-axis) means a higher value of detected VEGF. A higher VEGF value is an indication for a longer anagen phase. A longer anagen phase is an indication for more hair growth.
as §1
VEGF belongs to the signal molecules and stimulates the proliferation and migration of HFDPC. HFDPC generate more VEGF in the anagen phase. Thus VEGF is an indication of the anagen phase of a hair. […] The detection of the VEGF protein was performed with the Human VEGF ELISA Kit from invitrogen. The procedure was performed according to the protocol contained in the test kit with the cell supernatants previously frozen at -80°C. The removal of the cell culture supernatants was carried out on a 24-well scale.
VEGF was analyzed in the cell culture supernatant to check whether the active ingredients have an influence on cell function and, if so, whether they promote the release of VEGF (see figure).

[3] = system: Human Follicle Dermal Papilla Cells (HFDPC); assay: Cell count after trypsination; conditions: for cell number compared to untreated cells: depending on concentration and time; for influence on the cell count (conclusion): over 3 weeks
Experimental: as §1
This investigation was performed on a 24-well scale.
To perform this investigation 5000 cells per well were seeded in the 96-wells with the addition of a maximum of 200 µl medium. The cells were grown for 7 days in pure cell culture medium. The medium was changed every 2-3 days, whereby 100 µl of old medium was removed and replaced by 100 µl of new medium. After 7 days the "pure" cell culture medium was completely removed and medium with the respective additives was added. The cells were then cultivated for 3 weeks with regular replacement of the medium with the respective additives. Cell counting after trypsinizing: The exact cell count of HFDPC was determined after trypsination of the cells in the respective well and uptake of the resulting cell pellets in medium. All pellets of one sample were combined in a cell culture vessel and then counted with a cell counter.

[4] = system: Human Follicle Dermal Papilla Cells (HFDPC); assay: Immunofluorescent staining of vimentin; conditions: 2c (higher concentration)
[5] = system: Human Follicle Dermal Papilla Cells (HFDPC); assay: Cell impedance test on proliferation and toxicity (xCELLigence, cell index)
Experimental: The influence of various substances on the growth of HDPFC was investigated with the aid of a cell impedance device (xCELLigence® RTCA DP).
To perform this study 5000 HFDPC (Passage: 5) per well were seeded in the 16-well wells, coated on 50 µL collagen with the addition of a maximum of 200 µl medium. The cells were grown for 96 h in pure cell culture medium. After 96 h the "pure" cell culture medium was completely removed and medium with the respective additives was added. A further change with the respective additives took place after 48 h.
The CI (y-axis) is thus a measure of cell proliferation, cell morphology and cell vitality (only vital, adherent HFDPC can proliferate) overtime (x-axis).
The investigation of cell proliferation (cell index CI) or the exact determination of the cell number was carried out in order to detect a possible cytotoxic effect of the substances after addition to the cells. At the beginning of the experiment, the cells were confluently seeded in order to be able to " focus " on the induction of hair growth afterwards.
The influence of various substances on the growth of HDPFC was investigated with the aid of a cell impedance device (xCELLigence® RTCA DP). The xCELLigence® system consists of a measuring unit and software that allows to follow the cell invasion and migration in real time without the influence of additional substances for cell visualization, which could potentially have an impact on the cells. The system measures the electrical impedance via microelectrodes integrated on the bottom of the tissue culture E-plate. It enables the monitoring of changes in adhesion, spreading and proliferation of different cell types in real time, based on the measured cell-electrode impedance. […] This index is composed as follows: CI = (Rtn −Rt0)/(Fi) [formula]
Rtn and Rt0 are the frequency-dependent electrode resistances (a component of the impedance), where Rt0 is measured at time T0 (without cells) and Rtn with cells present. Fi depends on the frequency used in the measurement. Thus CI is a quantitative measure of the number of cells in an electrode-containing well, when comparing the same cell types. Under the same physiological conditions, more cells adhered to the electrodes result in a higher Rtn value, which leads to a higher value for CI. In the absence of living cells (cell culture medium only) or in a suspension of dead cells, the cell index values are close to zero. After cellular attachment to the electrode, the measurement signal correlates linearly with the cell count throughout the experiment. This investigation was performed on a 96-well scale. To perform this study 5000 HFDPC (Passage: 5) per well were seeded in the 96-well wells, coated on 50 µL collagen with the addition of a maximum of 200 µl medium. The cells were grown for 96 h in pure cell culture medium. After 96 h the "pure" cell culture medium was completely removed and medium with the respective additives was added. A further change with the respective additives took place after 48 h. The CI is thus a measure of cell proliferation, cell morphology and cell vitality (only vital, adherent HFDPC can proliferate). (FIG 11)

[6] = 1c (lower concentration), after 3 weeks
[7] = one week after addition of the active ingredients
[8] = 250 µg/mL in medium, first 24 hours after addition

CCCCC/C=C\C/C=C\C/C=C\C/C=C\CCCC(=O)[O-].[Na+] [arachidonate, Sodium Arachidonate]
cell morphology / confluence ([1]; second week of the experiment): almost the same morphology
cell density ([1]; second week, higher concentration): higher cell density
VEGF release [2, 6]: lower VEGF release
cell count ([3]; after 3 weeks, higher concentration, compared to untreated cells): increase in HFDPC
cell count ([3]; entire duration of the experiment, independent of time and concentration): did not negatively affect the cell count
cell count ([3]; over 2 weeks): remained constant
cell spreading and attachment to the cell culture substrate (vimentin staining) [4]: able to clearly spread and attach to the cell culture substrate
cell index ([5]; 50 µg/mL in medium): increase the cell index
toxic effect on the cells ([5]; 50 µg/mL in medium): does not have a toxic effect
toxic effect on the cells ([5]; 100µg/mL in medium): has a toxic effect

CCCCCC[C@@H](O)C/C=C\CCCCCCCC(=O)O [ricinoleic acid, 12-hydroxy-9-cis-octadecenoic acid]
cell morphology / confluence ([1]; after 3 weeks, both concentrations): confluent, very dense monolayer and an elongated cell shape
cell adherence and proliferation (summary of morphology) ([1]; after 3 weeks): very beneficial for cell adherence and proliferation
cell morphology / confluence [1, 7]: greater confluence
cell morphology / confluence ([1]; second week of the experiment): very high confluence in the well and elongated, typical growth
VEGF release ([2]; 2.c (higher concentration), after 3 weeks): lower VEGF release
cell count ([3]; after 1 week, compared to untreated cells): the difference was visible in both treated groups compared to untreated cells
cell number compared to untreated cells [3]: significant increase in cell count
influence on the cell count (conclusion) [3]: positive influence on the cell count
cell index ([5]; 100µg/mL, after 24 h and 48 h addition): remained constant
cell index [5, 8]: positive influence on the cell index
toxic effect on the cells [5, 8]: does not appear to have a toxic effect
cell index ([5]; 250 µg/mL, after 48h of repeated addition): decreases

C[C@@H]1CC[C@@]2(OC1)O[C@H]1C[C@H]3[C@@H]4CC=C5C[C@@H](O)CC[C@]5(C)[C@H]4CC[C@]3(C)[C@H]1[C@@H]2C [diosgenin, Diosgenin]
cell morphology / confluence ([1]; after 3 weeks, lower concentration): resembled untreated cells
cell adherence and proliferation (summary of morphology) ([1]; after 3 weeks): very beneficial for cell adherence and proliferation
cell morphology / confluence [1, 7]: greater confluence
cell morphology / confluence ([1]; second week of the experiment): very high confluence in the well and elongated, typical growth
VEGF release ([2]; 1c (lower concentration), after 1 week): lower VEGF release
VEGF release [2, 6]: lower VEGF release
number of HDFPC over time ([3]; 1c): remained constant after addition of Diosgenin 1c, but was increased compared to untreated cells
cell number over time ([3]; 2c, compared to untreated and Diosgenin 1c treated cells): significant increase in cell number
cell number compared to untreated cells [3]: positive influence on the cell number
influence on the cell count (conclusion) [3]: positive influence on the cell count
cell spreading and attachment to the cell culture substrate (vimentin staining) [4]: able to clearly spread and attach to the cell culture substrate
toxic effect on the cells ([5]; measured maximum concentration of 500 µg/mL): not toxic

— patent EP3895686A1, “NATURAL COMPOSITION FOR HAIR GROWTH STIMULATION AND HAIR LOSS PREVENTION AND TREATMENT” (FRAUNHOFER-GESELLSCHAFT zur Förderung der angewandten …, priority 2020, dated 2021)
